Assay results published in the CheMixHub ionic liquid set.

Assay: xn = mol fraction of the nth substance listed

CCCC[n+]1ccn(C)c1.F[P-](F)(F)(F)(F)F + CCCC[n+]1ccn(C)c1.F[B-](F)(F)F
101 kPa
Settings | viscosity [mPa·s]
298.15 K, x1 = 0.1034 | 116.1
298.15 K, x1 = 0.833 | 227
298.15 K, x1 = 0.8877 | 237
299.15 K, x1 = 0.1034 | 110.2
299.15 K, x1 = 0.2095 | 121.3
299.15 K, x1 = 1 | 259
301.15 K, x1 = 0.0568 | 91.6
301.15 K, x1 = 0.1034 | 99.5
301.15 K, x1 = 1 | 232
302.15 K, x1 = 0.0568 | 87.1
302.15 K, x1 = 0.3825 | 118.8
302.15 K, x1 = 0.4647 | 124.4
303.15 K, x1 = 0.0568 | 82.9
305.15 K, x1 = 0.6928 | 136.5
305.15 K, x1 = 0.945 | 166.1
307.15 K, x1 = 0.3825 | 92.5
307.15 K, x1 = 0.833 | 136.1
307.15 K, x1 = 0.945 | 149.7
308.15 K, x1 = 0.2095 | 77.4
308.15 K, x1 = 0.3825 | 88.1
308.15 K, x1 = 0.5385 | 98.8
308.15 K, x1 = 1 | 156

CN(C)C=O + CCCC[n+]1ccn(C)c1.F[B-](F)(F)F
Settings | viscosity [mPa·s]
298.15 K, 101.33 kPa, x1 = 1 | 0.8
333.15 K, 100 kPa, x2 = 0 | 0.559

CN1CCCC1=O + CCCC[n+]1ccn(C)c1.F[B-](F)(F)F
101 kPa, x1 = 1
Settings | viscosity [mPa·s]
298.15 K | 1.66
303.15 K | 1.49
308.15 K | 1.39
313.15 K | 1.31
323.15 K | 1.174

CC(=O)c1ccccc1 + CCCC[n+]1ccn(C)c1.F[P-](F)(F)(F)(F)F
100 kPa
Settings | viscosity [mPa·s]
293.15 K, x1 = 0.5999 | 49.3
303.15 K, x1 = 0.2999 | 45
313.15 K, x1 = 0.4973 | 21.6
313.15 K, x1 = 0.5999 | 16.5
323.15 K, x1 = 0.0913 | 30.2
323.15 K, x1 = 0.3908 | 20.1
323.15 K, x1 = 0.697 | 8
323.15 K, x1 = 0.7999 | 6
323.15 K, x1 = 0.95 | 1.89
333.15 K, x1 = 0.0913 | 20.3
333.15 K, x1 = 0.2999 | 17.7
333.15 K, x1 = 0.9002 | 3.48
333.15 K, x1 = 1 | 1.09
